≈ marks a conversion by molar mass, not a printed value. Calls of active or inactive are those of the source. The rule behind the calls is not given here.
How the values were obtained:
[1] = Metabolic stability in human liver microsome assessed as half life at 1 uM measured up to 60 mins in presence of NADPH by LC-MS/MS analysis; type: ADME; conditions: liver microsomes
[2] = Metabolic stability in mouse liver microsome assessed as half life at 1 uM measured up to 60 mins in presence of NADPH by LC-MS/MS analysis; type: ADME; conditions: liver microsomes
[3] = Metabolic stability human hepatocyte assessed as half life at 1 uM measured up to 120 mins by LC-MS/MS analysis; type: ADME, cell-based; conditions: hepatocytes
[4] = Permeability across basolateral to apical side in human Caco-2 cells incubated for 120 mins by LC-MS/MS analysis; type: ADME, cell-based; conditions: read-out: permeability
[5] = Kinetic solubility of compound in FeSSIF at pH 5 incubated for 2 hr by LC-MS analysis; type: physicochemical; conditions: read-out: Kinetic_solubility
[6] = Oral bioavailability in male C57BL/6 mouse at 10 mg/kg measured up to 24 hrs by LC-MS/MS analysis; type: ADME, organism-based; conditions: in vivo
[7] = Volume of distribution at steady state in Sprague-Dawley rat at 2 mg/kg, iv measured up to 24 hrs by LC-MS/MS analysis; type: ADME, organism-based; conditions: in vivo, read-out: Vdss
[8] = AUClast in Beagle dog at 2 mg/kg, iv measured up to 24 hrs by LC-MS/MS analysis; type: ADME, organism-based, Canis lupus familiaris; conditions: in vivo
[9] = Half life in cynomolgus monkey at 20 mg/kg, po measured up to 24 hrs by LC-MS/MS analysis; type: ADME, organism-based, Macaca fascicularis; conditions: in vivo
CYP1A2 = target: T1, CYP1A2 (Homo sapiens, UniProt P05177); assay: Inhibition of CYP1A2 in human liver microsome using phenacetin as substrate at 10 uM preincubated for 5 mins followed by NADPH addition and measured after 20 mins by LC-MS/MS analysis relative to control; type: ADME; conditions: human liver microsomes, probe phenacetin, time 25 min
T1 sequence (P05177 whole entry): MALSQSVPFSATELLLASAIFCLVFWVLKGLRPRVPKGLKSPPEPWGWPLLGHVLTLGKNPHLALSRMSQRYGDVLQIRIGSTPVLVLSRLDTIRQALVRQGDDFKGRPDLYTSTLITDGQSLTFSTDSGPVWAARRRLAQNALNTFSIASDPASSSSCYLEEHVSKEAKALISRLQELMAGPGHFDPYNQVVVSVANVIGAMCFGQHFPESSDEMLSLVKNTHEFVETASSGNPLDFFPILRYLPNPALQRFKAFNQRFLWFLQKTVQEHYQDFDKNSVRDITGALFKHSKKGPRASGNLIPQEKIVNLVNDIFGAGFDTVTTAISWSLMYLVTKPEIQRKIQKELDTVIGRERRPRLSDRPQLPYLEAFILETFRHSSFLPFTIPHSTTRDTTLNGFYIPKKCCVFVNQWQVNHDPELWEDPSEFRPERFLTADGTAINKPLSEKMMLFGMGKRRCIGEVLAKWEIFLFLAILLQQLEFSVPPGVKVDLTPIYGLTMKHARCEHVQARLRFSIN

CYP2C8 = target: T2, CYP2C8 (Homo sapiens, UniProt P10632); assay: Inhibition of CYP2C8 in human liver microsome using amodiaquine as substrate at 10 uM preincubated for 5 mins followed by NADPH addition and measured after 5 mins by LC-MS/MS analysis relative to control; type: ADME; conditions: human liver microsomes, probe amodiaquine, time 10 min
T2 sequence (P10632 whole entry): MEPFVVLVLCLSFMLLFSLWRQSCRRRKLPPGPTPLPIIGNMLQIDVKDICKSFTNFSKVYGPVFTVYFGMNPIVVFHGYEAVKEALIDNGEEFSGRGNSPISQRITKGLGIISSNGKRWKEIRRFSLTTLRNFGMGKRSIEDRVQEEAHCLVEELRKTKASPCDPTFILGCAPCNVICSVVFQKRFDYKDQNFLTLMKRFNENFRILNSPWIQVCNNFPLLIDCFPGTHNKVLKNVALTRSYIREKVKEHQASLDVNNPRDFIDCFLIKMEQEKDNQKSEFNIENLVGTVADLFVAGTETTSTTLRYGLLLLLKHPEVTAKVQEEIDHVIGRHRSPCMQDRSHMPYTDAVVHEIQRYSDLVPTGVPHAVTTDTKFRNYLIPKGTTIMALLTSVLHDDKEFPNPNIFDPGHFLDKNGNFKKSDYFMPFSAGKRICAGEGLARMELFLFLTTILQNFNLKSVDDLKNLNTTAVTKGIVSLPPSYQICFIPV

[10] = target: Protein cereblon/Sal-like protein 4 (Homo sapiens) (UniProt Q96SW2+Q9UJQ4); assay: PROTAC activity at CRBN/SALL4 in human PBMC cells assessed as induction of SALL4 degradation at 1 uM by Western blot analysis; type: cell-based
[11] = target: Cereblon/Ikaros (Homo sapiens) (UniProt Q96SW2+Q13422); assay: PROTAC activity at CRBN/IKZF1 in human PBMC cells assessed as induction of SALL4 degradation at 1 uM by Western blot analysis; type: cell-based
Mus musculus [12] = assay: Anti-psoriasis effect in IMQ-induced C57BL/6 mouse assessed as reduction in spleen weight at 100 mg/kg administered topically twice daily for 6 days and measured after 24 hrs; type: functional, organism-based; conditions: time 7.0 day
[13] = target: T3, Protein cereblon/Interleukin-1 receptor-associated kinase 4 (Mus musculus) (UniProt Q8C7D2+Q8R4K2); assay: In-vivo PROTAC activity at C57BL/6 mouse assessed as reduction in IRAK4 level in spleen at 30 mg/kg, po measured after 24 hrs by Western blot analysis; type: functional, organism-based; parameters: scale not given: the % may be the effect or the level left
[14] = target: T3, Protein cereblon/Interleukin-1 receptor-associated kinase 4 (Mus musculus); assay: In-vivo PROTAC activity at C57BL/6 mouse assessed as reduction in IRAK4 level in spleen at 10 mg/kg, po measured after 24 hrs by Western blot analysis; type: functional, organism-based; parameters: scale not given: the % may be the effect or the level left
Mus musculus [15] = assay: Anti-arthritic activity against collagen-induced arthritis DBA/1 mouse model assessed as improvement in delta paw volume at 30 mg/kg, po administered for 14 days […]; type: functional, organism-based; conditions: time 14.0 day

T3 sequence (Q8C7D2 whole entry, looked up): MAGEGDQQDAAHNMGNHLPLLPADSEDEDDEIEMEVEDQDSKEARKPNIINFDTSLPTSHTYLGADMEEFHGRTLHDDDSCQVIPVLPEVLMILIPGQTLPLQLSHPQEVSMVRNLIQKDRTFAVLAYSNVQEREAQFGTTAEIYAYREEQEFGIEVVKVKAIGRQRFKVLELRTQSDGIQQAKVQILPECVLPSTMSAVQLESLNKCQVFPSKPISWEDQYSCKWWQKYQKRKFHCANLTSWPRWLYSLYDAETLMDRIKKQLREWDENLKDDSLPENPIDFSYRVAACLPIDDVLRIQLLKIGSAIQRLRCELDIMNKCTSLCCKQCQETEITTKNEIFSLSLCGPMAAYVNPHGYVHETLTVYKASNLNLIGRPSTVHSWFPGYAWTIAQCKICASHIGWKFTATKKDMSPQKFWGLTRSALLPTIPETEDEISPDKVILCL
T3 sequence (Q8R4K2 whole entry, looked up): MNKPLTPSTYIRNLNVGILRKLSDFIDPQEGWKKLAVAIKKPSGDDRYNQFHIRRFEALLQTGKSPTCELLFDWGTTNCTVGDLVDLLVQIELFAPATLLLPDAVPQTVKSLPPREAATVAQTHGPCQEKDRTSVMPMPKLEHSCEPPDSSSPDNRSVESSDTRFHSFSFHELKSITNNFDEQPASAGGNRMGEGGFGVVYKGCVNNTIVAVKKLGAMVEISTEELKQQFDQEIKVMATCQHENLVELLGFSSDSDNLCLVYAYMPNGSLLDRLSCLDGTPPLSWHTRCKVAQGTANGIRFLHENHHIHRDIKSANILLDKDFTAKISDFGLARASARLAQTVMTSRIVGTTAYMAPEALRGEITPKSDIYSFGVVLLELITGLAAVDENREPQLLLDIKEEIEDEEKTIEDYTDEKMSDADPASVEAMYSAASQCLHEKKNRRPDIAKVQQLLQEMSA
Chain of Protein cereblon/Sal-like protein 4 (Homo sapiens) (Q96SW2 whole entry, looked up): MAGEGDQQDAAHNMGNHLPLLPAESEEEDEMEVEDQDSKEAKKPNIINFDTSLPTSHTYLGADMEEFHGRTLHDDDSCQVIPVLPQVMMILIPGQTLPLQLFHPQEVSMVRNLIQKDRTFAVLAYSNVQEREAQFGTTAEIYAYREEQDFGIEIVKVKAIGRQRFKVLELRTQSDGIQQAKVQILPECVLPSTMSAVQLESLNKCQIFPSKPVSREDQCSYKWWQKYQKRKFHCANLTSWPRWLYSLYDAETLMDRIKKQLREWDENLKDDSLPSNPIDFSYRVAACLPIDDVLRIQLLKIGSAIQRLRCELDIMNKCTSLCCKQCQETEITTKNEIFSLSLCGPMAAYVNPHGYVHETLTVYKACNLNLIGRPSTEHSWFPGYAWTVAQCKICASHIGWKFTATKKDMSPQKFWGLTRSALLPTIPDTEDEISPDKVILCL
Chain of Protein cereblon/Sal-like protein 4 (Homo sapiens) (Q9UJQ4 whole entry, looked up): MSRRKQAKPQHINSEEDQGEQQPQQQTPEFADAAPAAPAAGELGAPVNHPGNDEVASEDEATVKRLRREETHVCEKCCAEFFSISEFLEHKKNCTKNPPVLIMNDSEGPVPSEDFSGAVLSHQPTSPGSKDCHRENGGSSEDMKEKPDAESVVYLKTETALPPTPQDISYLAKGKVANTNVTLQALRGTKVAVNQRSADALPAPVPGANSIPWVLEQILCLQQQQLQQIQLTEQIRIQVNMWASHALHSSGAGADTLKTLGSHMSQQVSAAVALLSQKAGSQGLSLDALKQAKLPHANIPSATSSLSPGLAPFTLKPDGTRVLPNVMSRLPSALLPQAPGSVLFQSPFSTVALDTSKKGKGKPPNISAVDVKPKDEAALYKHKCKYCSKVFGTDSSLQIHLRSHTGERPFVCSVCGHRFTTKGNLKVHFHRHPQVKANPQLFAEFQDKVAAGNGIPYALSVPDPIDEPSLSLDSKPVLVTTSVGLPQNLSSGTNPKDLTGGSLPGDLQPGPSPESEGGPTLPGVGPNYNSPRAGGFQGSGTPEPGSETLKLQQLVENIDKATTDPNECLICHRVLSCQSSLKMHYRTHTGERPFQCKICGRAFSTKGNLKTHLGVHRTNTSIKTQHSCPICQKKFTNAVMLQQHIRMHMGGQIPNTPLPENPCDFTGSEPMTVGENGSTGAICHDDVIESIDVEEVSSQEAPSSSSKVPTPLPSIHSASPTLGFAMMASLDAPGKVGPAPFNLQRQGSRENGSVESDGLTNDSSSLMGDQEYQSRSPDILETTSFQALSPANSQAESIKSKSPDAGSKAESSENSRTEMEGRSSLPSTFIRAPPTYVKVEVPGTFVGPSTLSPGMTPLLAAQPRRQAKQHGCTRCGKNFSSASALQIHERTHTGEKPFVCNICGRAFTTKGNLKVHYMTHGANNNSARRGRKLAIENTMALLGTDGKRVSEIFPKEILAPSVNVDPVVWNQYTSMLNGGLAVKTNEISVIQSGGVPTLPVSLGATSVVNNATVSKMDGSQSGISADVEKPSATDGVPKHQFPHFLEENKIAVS

Q: With `Cn1c(=O)n(C2CCC(=O)NC2=O)c2cccc(C#CCO[C@H]3CC[C@H](CN4CCC5(CC4)Cc4cc(NC(=O)c6coc7cccnc67)c(N6CCC(CO)CC6)cc4O5)CC3)c21` (some centres not stated) as the compound, how does the half-life at 1 µM [1] read?
A: Its half-life at 1 µM is over 3.07 h.

Q: What about the half-life at 1 µM [2] of the same compound?
A: Its half-life at 1 µM is 1.52 h.

Q: What about the half-life at 1 µM [3] of the same compound?
A: The half-life at 1 µM was 2.5 h.

Q: What about the Papp B→A at 2 h [4] of the same compound?
A: The Papp B→A at 2 h was 0.2 ×10⁻⁶ cm/s.

Q: What about the solubility kinetic at 2 h [5] of the same compound?
A: Its solubility kinetic at 2 h is 7.78 µg/mL (≈ 8.94 µM).

Q: And the bioavailability [6]?
A: Its bioavailability is 45%.

Q: And the Vd [7]?
A: The Vd was 2.66 L/kg.

Q: What about the AUC(0-t) at 24 h [8] of the same compound?
A: Its AUC(0-t) at 24 h is 2670 ng·h/mL.

Q: And the half-life [9]?
A: Its half-life is 9.07 h.

Q: What about the inhibition at 20 min, 10 µM (CYP1A2) of the same compound?
A: The inhibition at 20 min, 10 µM was 8.32%.

Q: What about the inhibition at 5 min, 10 µM (CYP2C8) of the same compound?
A: Its inhibition at 5 min, 10 µM is 12.4%.

Q: And the Activity [10]?
A: Its Activity is “inactive”.

Q: What about the Activity [11] of the same compound?
A: Its Activity is “inactive”.

Q: And the Activity (Mus musculus [12])?
A: The Activity was “Active”.

Q: And the Activity [13]?
A: The Activity was over 80%.

Q: What about the Activity [14] of the same compound?
A: The Activity was 74%.

Q: And the Activity (Mus musculus [15])?
A: Its Activity is “Active”.
